Where two headings read alike, the source gives them in different places.
Columns and labels:
human AR = human AR (Homo sapiens, UniProt P10275); experiment: AR radioligand ([3H]methyltrienolone) receptor-binding assay
Experimental: Binding to ER and AR was conducted using standard methods for radioligand assays (Kurata et al. [2005]; Zava et al. [1979]).
The chemicals were tested for their ability to bind to different targets. In radioligand assays, targets included the binding affinity to human (non-selective) ER and human AR (Kurata et al. 2005; Zava et al. 1979). Chemicals were incubated at 10 µM with cells overexpressing ER or AR for 24 h at 4°C, after which, the binding of the radiolabeled ligand ([^3H]estradiol for ER and [^3H]methyltrienolone for AR) was measured by liquid scintillation counting. An increase or decrease higher than 50% were considered to represent significant effects. […] Receptor binding was calculated as a % inhibition of the binding of a radioactively labeled ligand specific for each target.
Each test chemical was tested in a single assay in duplicate.

H295R cells = experiment: H295R steroidogenesis assay (oestrogen and androgen production); format: cell-based, human; details: for minimal effective concentration: Homo sapiens, NCI-H295R, 48 h
Experimental: The in vitro H295R Steroidogenesis Assay is based on the human adenocarcinoma cell line, NCI-H295R, in which the human steroidogenesis pathway is fully functional (OECD 2022). The effect of the test chemical on the production of 17β-estradiol and testosterone is measured using ERα CALUX and AR CALUX technology.
The test chemical was tested in two independent assays, each in triplicate.

aromatase = experiment: ToxCast aromatase assays (TOX21_Aromatase_Inhibition) and final ToxCast call; format: cell-based; details: for ToxCast result: aromatase overall ToxCast call; for Final "true" call (ToxCast) Aromatase inhibition: from ToxCast assays
Source text: The performance of different in silico models for ED effects tends to be evaluated on single model for a single effect, such as ER or AR binding, agonism or antagonism (normally by the developer), or a limited number of models using multiple chemicals (Weyrich et al. [2022]). Multi-organisation collaborations have also evaluated multiple models for a specific effect e.g. ER (Mansouri et al. [2016]) and AR (Mansouri et al. [2020]) effects. Therefore, we have conducted a side-by-side comparison of multiple different in silico models covering three pathways in ED, namely ER, AR and aromatase inhibition and compared these with ToxCast-derived final calls, as well as with results from in vitro assays. The efficiency of the in silico models was evaluated as a metric for the ability of the in silico model to generate concrete predictions. […] In vivo data were available for some but not all chemicals; therefore, an evaluation of the performance of the methods was made by comparing the derived overall calls from in silico models with those from the ToxCast database. The final call for each chemical evaluated in the ToxCast assays was made by considering the active-flagged assays and the corresponding cytotoxicity levels, the ToxCast Pathway Model (Browne et al. [2015]) and the CERAPP Potency Level (Mansouri et al. [2016]) for ER effects and the ToxCast Pathway Model (Kleinstreuer et al. [2017]) for AR effects (see Online Resource 1 Supplementary Tables 2, 4 and 6 for the outcome of the ER, AR and aromatase ToxCast assays, additional literature and final calls for each chemical and target).
Aromatase represents only one enzyme involved in steroidogenesis (the conversion of androgens to oestrogens); therefore, the aromatase assay detects effects on 17β-oestradiol production only. […] It is a cell-based assay in which MCF-7 cells are incubated with the test chemical for 24 h before measuring aromatase activities indirectly via a luciferase-based reporter endpoint which is dependent on the binding of the oestradiol–ER complex to the oestrogen response element. A decrease in luciferase activity can occur as a result of direct inhibition of aromatase (preventing the production of oestradiol) or by preventing oestradiol from binding to the ER and thus the binding to the oestrogen RE which initiates the production of luciferase (Lui et al. [2008]).

AR [1] = target: T1, AR (Homo sapiens, UniProt P10275); experiment: YAS (Yeast androgen screen) assay, agonist and antagonist mode
T1 sequence (P10275 1-920): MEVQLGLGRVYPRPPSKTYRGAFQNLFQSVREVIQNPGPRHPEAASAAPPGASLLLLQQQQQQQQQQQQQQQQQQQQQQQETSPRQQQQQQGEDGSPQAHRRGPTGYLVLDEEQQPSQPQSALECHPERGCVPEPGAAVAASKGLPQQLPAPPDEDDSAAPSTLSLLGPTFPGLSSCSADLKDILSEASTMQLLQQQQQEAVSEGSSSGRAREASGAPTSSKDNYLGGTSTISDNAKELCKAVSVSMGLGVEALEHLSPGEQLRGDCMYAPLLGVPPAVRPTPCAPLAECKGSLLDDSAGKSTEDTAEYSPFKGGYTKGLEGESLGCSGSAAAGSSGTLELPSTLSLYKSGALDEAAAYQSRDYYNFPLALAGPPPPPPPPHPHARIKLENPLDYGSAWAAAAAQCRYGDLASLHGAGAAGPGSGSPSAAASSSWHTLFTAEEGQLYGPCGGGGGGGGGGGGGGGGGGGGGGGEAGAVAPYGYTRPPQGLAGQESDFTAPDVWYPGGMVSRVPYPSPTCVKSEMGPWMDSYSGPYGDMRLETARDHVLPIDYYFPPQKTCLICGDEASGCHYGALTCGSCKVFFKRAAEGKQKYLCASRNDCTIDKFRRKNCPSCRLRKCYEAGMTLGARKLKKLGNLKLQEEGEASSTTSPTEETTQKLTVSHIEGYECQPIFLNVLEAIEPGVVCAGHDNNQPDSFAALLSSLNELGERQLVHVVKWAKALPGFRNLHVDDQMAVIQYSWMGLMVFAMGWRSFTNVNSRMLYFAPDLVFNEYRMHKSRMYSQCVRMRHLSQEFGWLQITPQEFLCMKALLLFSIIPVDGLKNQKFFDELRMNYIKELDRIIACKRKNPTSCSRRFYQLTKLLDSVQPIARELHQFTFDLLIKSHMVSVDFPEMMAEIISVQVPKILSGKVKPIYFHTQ
Experimental: (§1) The YES/YAS XL (Xtra Lyticase) assay kit from Xenometrix AG (Allschwil, Switzerland) was conducted according to the Supplier’s instructions.
(§2) In the YES assay, human ERα is integrated in the yeast (Saccharomyces cerevisiae) chromosome, and for the YAS assay human AR is integrated (Routledge and Sumpter 1996; Sohoni and Sumpter 1998). […] This enzyme then converts a yellow substrate to a purple metabolite, which can be measured colorimetrically.
(§3) Growing yeast cells stably transformed with either hERα (YES) or hAR (YAS) and a β-galactosidase reporter system were exposed to a range of concentrations of each test compound. […] The positive control chemicals for agonistic effects were 17-β estradiol for YES and 5α-dihydrotestosterone for YAS. […] A combination of a fixed concentration of positive control and a range of concentrations of each test chemical were tested. The cells were incubated with each treatment for 18 h at 31°C. The cells were lysed in the presence of the yellow β-galactosidase-substrate, chlorophenol red-β-D-galactopyranoside (CPRG). Yeast cell growth was assessed prior to addition of the lysis buffer by measuring the absorbance at 690 nm. The production of the red metabolite of CPRG was determined by measuring the absorbance at 570 nm. It was corrected for diffraction by cells and debris by a simultaneous measurement at 690 nm. The results were evaluated for estrogenic and androgenic agonistic and antagonistic activity, as well as for yeast growth inhibition or cytotoxicity.
(§4) An IR value ≥ IR10 in the YES or YAS agonist assay indicates an agonistic effect (IR10 is defined as the IR which is 10% of (IR max - IR solvent) above the IR solvent. An IR value ≤ IR50 in the YES or YAS antagonist assay indicates a possible antagonistic effect (IR50 is defined as 50% of (IR control - IR solvent), where the IR control is at the corresponding fixed concentration of agonist used: 3.3 × 10^-10 M 17-β estradiol and 3.3 × 10^-9 M 5α-dihydrotestosterone, respectively). […]

ER = system: ER; set-up: method as in Browne, et al (2015); details: ref Browne, et al (2015), cited from earlier work; for ToxCast Pathway Model (AUC): as agonist where given, value above 0.1 = significant interaction
AR [2] = details: AR pathway model; ref Kleinstreuer et al (2017) 10.1021/acs.chemrestox.6b00347; cited from earlier work
ERα = target: T2, ERα (Homo sapiens, UniProt P03372); experiment: YES (Yeast oestrogen screen) assay, agonist and antagonist mode; details: YES agonist assay; duplicates in two independent experiments
T2 sequence (P03372 1-595): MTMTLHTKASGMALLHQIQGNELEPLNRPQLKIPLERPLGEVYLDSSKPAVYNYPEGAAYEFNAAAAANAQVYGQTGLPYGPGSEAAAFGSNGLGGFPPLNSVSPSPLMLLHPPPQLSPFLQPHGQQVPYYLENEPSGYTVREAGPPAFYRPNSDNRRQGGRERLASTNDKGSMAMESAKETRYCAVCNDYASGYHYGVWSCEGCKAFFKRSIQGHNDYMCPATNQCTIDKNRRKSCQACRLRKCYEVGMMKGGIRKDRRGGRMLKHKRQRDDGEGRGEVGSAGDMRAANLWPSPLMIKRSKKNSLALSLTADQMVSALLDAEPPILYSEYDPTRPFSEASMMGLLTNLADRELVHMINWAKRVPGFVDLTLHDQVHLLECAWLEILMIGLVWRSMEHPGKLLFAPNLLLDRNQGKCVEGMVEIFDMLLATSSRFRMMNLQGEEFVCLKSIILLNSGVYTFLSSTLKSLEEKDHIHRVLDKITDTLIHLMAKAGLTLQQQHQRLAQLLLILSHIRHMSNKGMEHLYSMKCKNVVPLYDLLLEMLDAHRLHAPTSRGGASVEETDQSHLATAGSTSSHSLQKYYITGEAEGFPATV
Experimental: as §1, §2, §3, §4

[3] = read-out: Steroidogenesis Androgenicity LEC
[4] = read-out: Steroidogenesis Estrogenicity LEC

| Compound | AR binding outcome (human AR) | minimal effective concentration (H295R cells; [3]) [µM] | minimal effective concentration (H295R cells; [4]) [µM] | ToxCast result (aromatase) | Final "true" call (ToxCast) Aromatase inhibition (aromatase) | AR antagonism in the YAS assay (AR [1]; YAS antagonist assay) | LEC, androgen production (H295R cells; decrease) [µM] | androgen production, fold of control (H295R cells; highest concentration tested, 100 µM) | ToxCast Pathway Model (AUC) (ER) | ToxCast Pathway Model interaction (ER) | ToxCast Pathway Model (AUC) (AR [2]) | ER agonism in the YES assay (ERα) | inhibition at 10 µM (human AR; read-out: inhibition of control specific binding to the AR) [%] | outcome in the YAS assay (AR [1]; agonist and antagonist) | toxicity to yeast (decrease in the yeast cell growth) (AR [1]; highest concentrations tested) |
| --- | --- | --- | --- | --- | --- | --- | --- | --- | --- | --- | --- | --- | --- | --- | --- |
| CCCCN(CCCC)c1ccc(C(=O)c2ccccc2C(=O)O)c(O)c1 [DBABA, 2-[4-(dibutylamino)-2-hydroxybenzoyl]benzoic acid] | did not bind to the AR | > 10 | > 10 | Negative | Negative | inconclusive | – | – | – | – | – | – | – | – | – |
| O=c1c(-c2ccc(O)cc2)coc2cc(O)ccc12 [Daidzein, daidzein] | did not bind to the AR | 0.794 | > 3.16 | Negative | Negative | – | 0.77 | 0.06 fold of control | 0.44 | significant interaction | AUC = 0, then there is no significant interaction. | positive | – | – | – |
| C[C@]12CCC(=O)C[C@@H]1CC[C@@H]1[C@@H]2CC[C@@]2(C)[C@H]1CC[C@]2(C)O [Mestanolone, mestanolone, reference compound] | – | > 0.00316 | > 0.1 | Negative | Negative | – | – | – | – | – | – | positive | – | – | – |
| CC(C)(C)CC(C)(C)c1ccc(O)cc1 [4-TO, 4-tert-octylphenol] | significant binding | > 1 | – | – | Inconclusive | – | – | – | 0.393 | significant interaction | AUC = 0.23 as agonist, then there is a significant interaction. | – | 10 | negative | toxic at the highest concentrations tested |
